Measured values published in paper PMC9579194, “Selective macrocyclic peptide modulators of Lys63-linked ubiquitin chains disrupt DNA damage repair” (Nature Communications, 2022).
“And” between values parts separate entries of the source, which are not always exact repeats. Equal entries are not always repeated. Where two headings read alike, the source gives them in different places. *1 amine or outer side, *2 acyl side, *3 side chain or, on linkers, in order; H or OH if unused. Where a SMILES comes first, the peptide text is derived from it. Bridges are numbered along the chain shown (N, C = ends). The star is where a group is joined. Fluorescein(5-Mal) = O=C1OC2(c3ccc(O)cc3Oc3cc(O)ccc32)c2ccc(N3C(=O)CC(*)C3=O)cc21; X2 = CN(C)c1ccc2c(-c3ccc(N4C(=O)CC(*)C4=O)cc3C(=O)[O-])c3ccc(=[N+](C)C)cc-3oc2c1; X1 = O=C(c1cccc(C[*:2])c1)[*:1]; X3 = Fc1c(F)c(F)c(*)c(F)c1F

What was measured:
Lys63 linked Di-Ub = target: T1, Lys63 linked Di-Ub (Homo sapiens, UniProt P0CG48); experiment: KD determination of fluorophore-labeled cyclic peptides, fluorescence-based assay; type: binding; settings: for Reading-1 / Reading-2 / Reading-3: raw fluorescence, blank not subtracted, Experiments 1-3; for Kd: fluorophore-labeled peptide, Y = Bmax*X/(KD + X)
T1 construct: made in house; host or cells: total chemical synthesis (Fmoc-SPPS, ligation, desulfurization)
Method: (ii) Determination of KD value of CP1-FITC
According to the described procedure in literature,3 the KD value of FITC-labeled cyclic peptide 1 (CP1- […]
Supplementary Fig. 25 The carve represents the binding of CP1-FITC to Lys63 linked Di-Ub. Using Y = […]
All measurements were performed in three independent experiments. Bars represent mean values. All source data are provided as a Source […]
(iii) Determination of KD value of CP1-TAMRA
The fluorescence values were measured (λex = 510 nm and λem = 565 nm) in a similar way as described for CP1-FITC. The dissociation constant (KD) value of TAMRA-labeled CP1 (CP1-TAMRA) was calculated as 101.9 ± 3.6 nM. All measurements were performed in triplicates.
Supplementary Fig. 26 The carve represents the binding of CP1-TAMRA to Lys63 linked Di-Ub. Using […]
performed in triplicates. All measurements were performed in three independent experiments. Bars represent mean values. All source data are provided as a Source data file. […]
(iv) Determination of KD value of 2-FITC, 29
The dissociation constant (KD) value of FITC-labeled cyclic peptide 29 was calculated as 43.2± 4 nM.
Supplementary Fig. 27 The carve represents the binding of 2-FITC to Lys63 linked Di-Ub. Using Y = […]
All measurements were performed in triplicates. All measurements were performed in three independent experiments. Bars represent mean values. All source data are provided as a Source data file .
(v) Determination of KD value of 2-TAMRA, 26
CP1-FITC. The dissociation constant (KD) value of TAMRA-labeled 26 (2-TAMRA) was calculated as 47.4 ± 5.9 nM. All measurements were performed in triplicates.
Supplementary Fig. 28 The carve represents the binding of 2-TAMRA to Lys63 linked Di-Ub. Using Y = […]
in triplicates. All measurements were performed in three independent experiments. Bars represent mean […]
(vi) Determination of KD value of FITC labeled cyclic peptide 27a for cyclic peptide 20 […]
Supplementary Fig. 29 The carve represents the binding of 27a to Lys63 linked Di-Ub. Using Y = […]
values. All source data are provided as a Source data file. […]

U2OS cells [1] = system: U2OS cells
Method: (§1) Cells were seeded for 24 h on Ibidi 8 well µ-slides treated with poly-L-lysine to reach ~90% confluency. Cells were then washed three times with warm PBS followed by incubation for 1 h with a warm serum-free medium (DMEM) containing peptides. Thereafter, cells were washed two times with warm PBS. Prior to imaging, cells were washed with an optical culture medium and stained with Hoechst (2 µg/ml). Live cell CLSM images were captured using Confocal Zeiss LSM 710 equipped with 40× NA 1.2 water immersion objective lens using a 1 AU pinhole settings. Different lasers were used for the different tags (Hoechst, TAMRA, FITC), and during analysis, the µ-slide was kept at 37 °C in a humidified chamber. Images were analyzed using ZEN 3.2 (blue edition).

U2OS cells [2] = experiment: Cell uptake study by confocal microscopy; settings: live U2OS cells, 1 h, laser scanning confocal microscopy
Method: as §1

cells = experiment: Cell membrane integrity analysis, SYTOX blue assay; type: cell-based; settings: up to 2 μM of cyclic peptides
Method: To assess the cell toxicity due to the loss of membrane integrity within the concentration range used for efficient live-cell delivery of synthetic cyclic peptide molecules, we proceed similarly to the cell uptake experiment and stain the cells with SYTOX™ Blue (100 nM)[44]. SYTOX™ blue dead cell stain is a high-affinity nucleic acid stain that easily penetrates cells with compromised plasma membranes but will not cross uncompromised cell membranes. […] CLSM images were analyzed using ZEN 3.2 (blue edition).

CC[C@H](C)[C@@H]1NC(=O)[C@H](Cc2c[nH]c3ccccc23)NC(=O)[C@H]([C@@H](C)CC)NC(=O)[C@H](CC(C)C)NC(=O)[C@H](CC(C)C)NC(=O)c2cccc(c2)CSC[C@@H](C(=O)NCC(=O)N[C@@H](C)C(=O)N[C@@H](CSC2CC(=O)N(c3ccc4c(c3)C(=O)OC43c4ccc(O)cc4Oc4cc(O)ccc43)C2=O)C(N)=O)NC(=O)[C@H](CC(C)C)NC(=O)[C@H]([C@@H](C)CC)NC(=O)[C@H](Cc2ccc(O)cc2)NC(=O)[C@@H]2CCCN2C(=O)[C@H](CC(N)=O)NC(=O)[C@H](CCCCN)NC(=O)[C@H](CO)NC(=O)[C@H](CO)NC(=O)CNC1=O (stereo partly drawn) [CP1-FITC] (LLIWIGSSKNPYILCGAC(Fluorescein(5-Mal))-NH2; linker N-15 via X1)
Reading-1 (Lys63 linked Di-Ub; conc. 10 nM): 1192 and 1298 and 1136
Reading-2 (Lys63 linked Di-Ub; conc. 10 nM): 1174 and 1279 and 1151
Reading-3 (Lys63 linked Di-Ub; conc. 10 nM): 1201 and 1288 and 1189
Reading-1 (Lys63 linked Di-Ub; conc. 20 nM): 1625 and 1719 and 1573
Reading-2 (Lys63 linked Di-Ub; conc. 20 nM): 1643 and 1748 and 1595
Reading-3 (Lys63 linked Di-Ub; conc. 20 nM): 1657 and 1774 and 1588
Reading-1 (Lys63 linked Di-Ub; conc. 40 nM): 2317 and 2485 and 2207
Reading-2 (Lys63 linked Di-Ub; conc. 40 nM): 2298 and 2498 and 2217
Reading-3 (Lys63 linked Di-Ub; conc. 40 nM): 2354 and 2474 and 2221
Reading-1 (Lys63 linked Di-Ub; conc. 50 nM): 2713 and 2954 and 2674
Reading-2 (Lys63 linked Di-Ub; conc. 50 nM): 2756 and 2925 and 2696
Reading-3 (Lys63 linked Di-Ub; conc. 50 nM): 2732 and 2851 and 2602
Reading-1 (Lys63 linked Di-Ub; conc. 100 nM): 3252 and 3463 and 3183
Reading-2 (Lys63 linked Di-Ub; conc. 100 nM): 3236 and 3622 and 3192
Reading-3 (Lys63 linked Di-Ub; conc. 100 nM): 3249 and 3477 and 3196
Reading-1 (Lys63 linked Di-Ub; conc. 150 nM): 3598 and 3825 and 3755
Reading-2 (Lys63 linked Di-Ub; conc. 150 nM): 3624 and 3817 and 3779
Reading-3 (Lys63 linked Di-Ub; conc. 150 nM): 3602 and 3844 and 3784
Reading-1 (Lys63 linked Di-Ub; conc. 200 nM): 4108 and 4275 and 4422
Reading-2 (Lys63 linked Di-Ub; conc. 200 nM): 4147 and 4231 and 4454
Reading-3 (Lys63 linked Di-Ub; conc. 200 nM): 4171 and 4244 and 4397
Reading-1 (Lys63 linked Di-Ub; conc. 250 nM): 4518 and 4629 and 4716
Reading-2 (Lys63 linked Di-Ub; conc. 250 nM): 4536 and 4677 and 4749
Reading-3 (Lys63 linked Di-Ub; conc. 250 nM): 4549 and 4687 and 4765
Reading-1 (Lys63 linked Di-Ub; conc. 300 nM): 4808 and 4979 and 5034
Reading-2 (Lys63 linked Di-Ub; conc. 300 nM): 4853 and 4995 and 5045
Reading-3 (Lys63 linked Di-Ub; conc. 300 nM): 4869 and 4968 and 5076

CC[C@H](C)[C@@H]1NC(=O)[C@H](Cc2c[nH]c3ccccc23)NC(=O)[C@H]([C@@H](C)CC)NC(=O)[C@H](CC(C)C)NC(=O)[C@H](CS)NC(=O)c2cccc(c2)CSC[C@@H](C(=O)NCC(=O)N[C@@H](C)C(=O)N[C@@H](CSC2CC(=O)N(c3ccc4c(c3)C(=O)OC43c4ccc(O)cc4Oc4cc(O)ccc43)C2=O)C(N)=O)NC(=O)[C@H](CC(C)C)NC(=O)[C@H]([C@@H](C)CC)NC(=O)[C@H](Cc2ccc(O)cc2)NC(=O)[C@@H]2CCCN2C(=O)[C@H](CC(N)=O)NC(=O)[C@H](CCCCN)NC(=O)[C@H](CO)NC(=O)[C@H](CO)NC(=O)CNC1=O (stereo partly drawn) [2-FITC] (CLIWIGSSKNPYILCGAC(Fluorescein(5-Mal))-NH2; linker N-15 via X1)
Kd (Lys63 linked Di-Ub): 0.0432 ± 0.004 µM
cell-permeability / delivery to cells (U2OS cells [1]): did not observe an efficient delivery

CC[C@H](C)[C@@H]1NC(=O)[C@H](Cc2c[nH]c3ccccc23)NC(=O)[C@H]([C@@H](C)CC)NC(=O)[C@H](CC(C)C)NC(=O)[C@H](CS)NC(=O)c2cccc(c2)CSC[C@@H](C(=O)NCC(=O)N[C@@H](C)C(=O)N[C@@H](CSC2CC(=O)N(c3ccc(-c4c5ccc(=[N+](C)C)cc-5oc5cc(N(C)C)ccc45)c(C(=O)[O-])c3)C2=O)C(N)=O)NC(=O)[C@H](CC(C)C)NC(=O)[C@H]([C@@H](C)CC)NC(=O)[C@H](Cc2ccc(O)cc2)NC(=O)[C@@H]2CCCN2C(=O)[C@H](CC(N)=O)NC(=O)[C@H](CCCCN)NC(=O)[C@H](CO)NC(=O)[C@H](CO)NC(=O)CNC1=O (stereo partly drawn) [2-TAMRA] (CLIWIGSSKNPYILCGAC(X2)-NH2; linker N-15 via X1)
cell-permeability / delivery to cells (U2OS cells [2]): efficient cell-permeability
Kd (Lys63 linked Di-Ub): 0.0474 ± 0.0059 µM
SYTOX signal (cell membrane integrity) (cells): did not detect SYTOX signal

CC[C@H](C)[C@@H]1NC(=O)[C@H](Cc2c[nH]c3ccccc23)NC(=O)[C@H]([C@@H](C)CC)NC(=O)[C@H](CC(C)C)NC(=O)[C@H](CSc2c(F)c(F)c(F)c(F)c2F)NC(=O)c2cccc(c2)CSC[C@@H](C(=O)NCC(=O)N[C@@H](C)C(=O)N[C@@H](CSC2CC(=O)N(c3ccc4c(c3)C(=O)OC43c4ccc(O)cc4Oc4cc(O)ccc43)C2=O)C(N)=O)NC(=O)[C@H](CC(C)C)NC(=O)[C@H]([C@@H](C)CC)NC(=O)[C@H](Cc2ccc(O)cc2)NC(=O)[C@@H]2CCCN2C(=O)[C@H](CC(N)=O)NC(=O)[C@H](CCCCN)NC(=O)[C@H](CO)NC(=O)[C@H](CO)NC(=O)CNC1=O (stereo partly drawn) [27a] (C(X3)LIWIGSSKNPYILCGAC(Fluorescein(5-Mal))-NH2; linker N-15 via X1)
Kd (Lys63 linked Di-Ub): 0.285 ± 0.0119 µM
